Laboratory results from patent US20170050980A1, “OXADIAZINE COMPOUNDS AND METHODS OF USE THEREOF” (FORUM Pharmaceuticals Inc., priority 2015, published 2017).
pIC50: −log10 of the molar value.

Test system: Aβ42
Assay: In vitro cell screening assay; quantification of Aβ (1-42) peptide by sandwich ELISA
Assay type: cell-based
Conditions: Human neuroglioma H4 cells stably expressing human wild type APP751; compounds 0.003-10 μM, incubated overnight (16-18 h); Aβ42 in supernatant by sandwich ELISA; normalized to DMSO and DAPT; read-out: Aβ42 H4 Prot Fre IC50
Method in brief: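 Stable H4 neuroglioma line expressing human wild-type APP751; compounds 0.003-10 μM (0.33% DMSO final) added in Pro293 medium 6 h after plating, incubated overnight (16-18 h) at 37 °C. Secreted Aβ42 measured in supernatant by C-terminal-capture sandwich ELISA with 4G8-HRP detection; IC50 by sigmoidal fit, normalized to DMSO and DAPT.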

Row | Compound | pIC50
1 | COc1nc(C2=NOC(C3CC3)C(c3cn(C)c4nccc(F)c34)N2)ccc1-n1cnc(C)c1 (single isomer, unassigned; (+)) [Example 63A, (+)-6-cyclopropyl-5-(4-fluoro-1-methyl-1H-pyrrolo [2,3-b]pyridin-3-yl)-3-(6-methoxy-5-(4-methyl-1H-imidazol-1-yl)pyridin-2-yl)-5,6-dihydro-4H-1,2,4-oxadiazine] | 5.98
2 | COc1nc(C2=NOC(C)C(c3cn(C)c4ncc(C(F)(F)F)cc34)N2)ccc1-n1cnc(C)c1 (single isomer, unassigned; (-)) [44A or 45A, (−)-3-(6-methoxy-5-(4-methyl-1H-imidazol-1-yl)pyridin-2-yl)-6-methyl-5-(1-methyl-5-(trifluoromethyl)-1H-pyrrolo[2,3-b]pyridin-3-yl)-5,6-dihydro-4H-1,2,4-oxadiazine] | 6.76
3 | COc1nc(C2=NOC(C)C(c3cn(C)c4ncc(C(F)(F)F)cc34)N2)ccc1-n1cnc(C)c1 (single isomer, unassigned; (-)) [44C or 45C, (−)-3-(6-methoxy-5-(4-methyl-1H-imidazol-1-yl)pyridin-2-yl)-6-methyl-5-(1-methyl-5-(trifluoromethyl)-1H-pyrrolo[2,3-b]pyridin-3-yl)-5,6-dihydro-4H-1,2,4-oxadiazine] | ~5.86
4 | COc1nc(C2=NOC(C)C(c3cn(C)c4cc(F)c(Cl)cc34)N2)ccc1-n1cnc(C)c1 (single isomer, unassigned; (-)) [Example 21A, (−)-5-(5-chloro-6-fluoro-1-methyl-1H-indol-3-yl)-3-(6-methoxy-5-(4-methyl-1H-imidazol-1-yl)pyridin-2-yl)-6-methyl-5,6-dihydro-4H-1,2,4-oxadiazine] | 7.19
5 | COc1nc(C2=NOC(C)C(c3cn(C)c4cc(F)c(Cl)cc34)N2)ccc1-n1cnc(C)c1 (single isomer, unassigned; (-)) [Example 21C, (−)-5-(5-chloro-6-fluoro-1-methyl-1H-indol-3-yl)-3-(6-methoxy-5-(4-methyl-1H-imidazol-1-yl)pyridin-2-yl)-6-methyl-5,6-dihydro-4H-1,2,4-oxadiazine] | 6.43
6 | COc1nc(C2=NOC(C)(C)C(c3ccccc3)N2)ccc1-n1cnc(C)c1 (single isomer, unassigned; (-)) [Example 22A, (−)-3-[6-methoxy-5-(4-methyl-1H-imidazol-1-yl)pyridin-2-yl]-6,6-dimethyl-5-phenyl-5,6-dihydro-4H-1,2,4-oxadiazine] | < 5.52
7 | COc1nc(C2=NOC(C)(C)C(c3ccc(Cl)cc3)N2)ccc1-n1cnc(C)c1 (single isomer, unassigned; (-)) [Example 23A, (−)-5-(4-chlorophenyl)-3-[6-methoxy-5-(4-methyl-1H-imidazol-1-yl)pyridin-2-yl]-6,6-dimethyl-5,6-dihydro-4H-1,2,4-oxadiazine] | 5.94
8 | COc1nc(C2=NOC3(CC3)C(c3ccc(Cl)cc3)N2)ccc1-n1cnc(C)c1 (single isomer, unassigned; (-)) [Example 25A, (−)-8-(4-chlorophenyl)-6-[6-methoxy-5-(4-methyl-1H-imidazol-1-yl)pyridin-2-yl]-4-oxa-5,7-diazaspiro[2.5]oct-5-ene] | 5.58
9 | COc1nc(C2=NOCC(C)(c3cn(C)c4ccccc34)N2)ccc1-n1cnc(C)c1 (single isomer, unassigned; (-)) [Example 26B, (−)-3-[3-[6-methoxy-5-(4-methyl-1H-imidazol-1-yl)pyridin-2-yl]-5-methyl-5,6-dihydro-4H-1,2,4-oxadiazin-5-yl]-1-methyl-1H-indole] | 6.51
10 | COc1nc(C2=NOCC(c3c4n(c5ccc(Cl)cc35)CCOC4)N2)ccc1-n1cnc(C)c1 (single isomer, unassigned; (-)) [Example 28B, (−)-8-chloro-10-(3-(6-methoxy-5-(4-methyl-1H-imidazol-1-yl)pyridin-2-yl)-5,6-dihydro-4H-1,2,4-oxadiazin-5-yl)-3,4-dihydro-1H-[1,4]oxazino[4,3-a]indole] | 7.21
11 | COc1nc(C2=NOCC(c3cn(C)c4ccc(C5CCOCC5)cc34)N2)ccc1-n1cnc(C)c1 (single isomer, unassigned; (-)) [Example 29A, (−)-3-(6-methoxy-5-(4-methyl-1H-imidazol-1-yl)pyridin-2-yl)-5-(1-methyl-5-(tetrahydro-2H-pyran-4-yl)-1H-indol-3-yl)-5,6-dihydro-4H-1,2,4-oxadiazine] | 6.18
12 | COc1nc(C2=NOCC(c3c4n(c5ccccc35)CCOC4)N2)ccc1-n1cnc(C)c1 (single isomer, unassigned; (-)) [Example 30A, (−)-10-(3-(6-methoxy-5-(4-methyl-1H-imidazol-1-yl)pyridin-2-yl)-5,6-dihydro-4H-1,2,4-oxadiazin-5-yl)-3 ,4-dihydro-1H-[1,4]oxazino[4,3-a]indole] | 6.49
13 | COc1nc(C2=NOC(C)C(c3cn(C)c4cc(F)c(F)cc34)N2)ccc1-n1cnc(C)c1 (single isomer, unassigned; (-)) [Example 39B, (−)-5-(5,6-difluoro-1-methyl-1H-indol-3-yl)-3-(6-methoxy-5-(4-methyl-1H-imidazol-1-yl)pyridin-2-yl)-6-methyl-5,6-dihydro-4H-1,2,4-oxadiazine] | 7.15
14 | COc1nc(C2=NOC(C)C(c3cn(C)c4cc(F)c(F)cc34)N2)ccc1-n1cnc(C)c1 (single isomer, unassigned; (-)) [Example 39C, (−)-5-(5,6-difluoro-1-methyl-1H-indol-3-yl)-3-(6-methoxy-5-(4-methyl-1H-imidazol-1-yl)pyridin-2-yl)-6-methyl-5,6-dihydro-4H-1,2,4-oxadiazine] | 6.14
15 | COc1nc(C2=NOC(C)C(c3ccc(Cl)cc3)N2)ccc1-n1cnc(Cl)c1 (single isomer, unassigned; (-)) [Example 42A, (−)-3-(5-(4-chloro-1H-imidazol-1-yl)-6-methoxypyridin-2-yl)-5-(4-chlorophenyl)-6-methyl-5,6-dihydro-4H-1,2,4-oxadiazine] | < 5.52
16 | COc1cc(C2=NOC(C)C(c3ccc(Cl)cc3)N2)ccc1-n1cnc(C)c1 (single isomer, unassigned; (-)) [Example 43A, (−)-5-(4-chlorophenyl)-3-(3-methoxy-4-(4-methyl-1H-imidazol-1-yl)phenyl)-6-methyl-5,6-dihydro-4H-1,2,4-oxadiazine] | < 5.52
17 | COc1nc(C2=NOC(C)C(c3cccc(Cl)c3)N2)ccc1-n1cnc(Cl)c1 (single isomer, unassigned; (-)) [Example 47A, (−)-3-(5-(4-chloro-1H-imidazol-1-yl)-6-methoxypyridin-2-yl)-5-(3-chlorophenyl)-6-methyl-5,6-dihydro-4H-1,2,4-oxadiazine] | < 5.52
18 | COc1nc(C2=NOC(C)C(c3ccc(Cl)cc3)N2)ccc1-c1ccnc(C)c1 (single isomer, unassigned; (-)) [Example 48A, (−)-5-(4-chlorophenyl)-3-(2-methoxy-2′-methyl-[3,4′-bipyridin]-6-yl)-6-methyl-5,6-dihydro-4H-1,2,4-oxadiazine] | 6.36
19 | COc1nc(C2=NOC(C)C(c3cccc(Cl)c3)N2)ccc1-c1ccnc(C)c1 (single isomer, unassigned; (-)) [Example 49A, (−)-5-(3-chlorophenyl)-3-(2-methoxy-2′-methyl-[3,4′-bipyridin]-6-yl)-6-methyl-5,6-dihydro-4H-1,2,4-oxadiazine] | 6.26
20 | COc1nc(C2=NOC(C)C(c3c4n(c5ccc(Cl)cc35)CCOC4)N2)ccc1-n1cnc(C)c1 (single isomer, unassigned; (-)) [Example 50B, (−)-8-chloro-10-(3-(6-methoxy-5-(4-methyl-1H-imidazol-1-yl)pyridin-2-yl)-6-methyl-5,6-dihydro-4H-1,2,4-oxadiazin-5-yl)-3,4-dihydro-1H-[1,4] oxazino [4,3-a] indole] | 7.57
21 | COc1nc(C2=NOC(C)C(c3c4n(c5ccc(Cl)cc35)CCOC4)N2)ccc1-n1cnc(C)c1 (single isomer, unassigned; (-)) [Example 50C, (−)-8-chloro-10-(3-(6-methoxy-5-(4-methyl-1H-imidazol-1-yl)pyridin-2-yl)-6-methyl-5,6-dihydro-4H-1,2,4-oxadiazin-5-yl)-3,4-dihydro-1H-[1,4] oxazino [4,3-a] indole] | 6.45
22 | COc1nc(C2=NOC(C)C(c3cn(C)c4ncc(F)c(F)c34)N2)ccc1-n1cnc(C)c1 (single isomer, unassigned; (-)) [Example 51B, (−)-5-(4,5-difluoro-1-methyl-1H-pyrrolo [2,3-b]pyridin-3-yl)-3-(6-methoxy-5-(4-methyl-1H-imidazol-1-yl)pyridin-2-yl)-6-methyl-5,6-dihydro-4H-1,2,4-oxadiazine] | 6.66
23 | COc1nc(C2=NOC(C)C(c3cn(C)c4ccc(F)c(F)c34)N2)ccc1-n1cnc(C)c1 (single isomer, unassigned; (-)) [Example 52A, (−)-5-(4,5-difluoro-1-methyl-1H-indol-3-yl)-3-(6-methoxy-5-(4-methyl-1H-imidazol-1-yl)pyridin-2-yl)-6-methyl-5,6-dihydro-4H-1,2,4-oxadiazine] | 7.08
24 | COc1nc(C2=NOC(C)C(c3cn(C)c4ccc(F)c(F)c34)N2)ccc1-n1cnc(C)c1 (single isomer, unassigned; (-)) [Example 52D, (−)-5-(4,5-difluoro-1-methyl-1H-indol-3-yl)-3-(6-methoxy-5-(4-methyl-1H-imidazol-1-yl)pyridin-2-yl)-6-methyl-5,6-dihydro-4H-1,2,4-oxadiazine] | 6.40
25 | COc1nc(C2=NOC(C)C(c3cccc(Cl)c3)N2)ccc1-n1cnc(C)n1 (single isomer, unassigned; (-)) [Example 53A, (−)-5-(3-chlorophenyl)-3-(6-methoxy-5-(3-methyl-1H-1,2,4-triazol-1-yl)pyridin-2-yl)-6-methyl-5,6-dihydro-4H-1,2,4-oxadiazine] | < 5.52
